Results from the supplement of paper PMC13380429.

Legend:
[1] = system: Caco-2; assay: cell viability relative to DMSO; higher = less toxic; details: 72 h
[2] = system: Calu-3; assay: as above; details: 72 h
[3] = system: HepG2; assay: as above; details: 72 h
[4] = system: U2OS; assay: as above; details: 72 h
[5] = system: Vero E6; assay: as above; details: 72 h
[6] = system: Caco-2; assay: relative viability EC50 (midpoint between 100% and the lowest measured viability); higher = less toxic; details: 72 h
[7] = system: Calu-3; assay: as above; details: 72 h
[8] = system: HepG2; assay: as above; details: 72 h
[9] = system: U2OS; assay: as above; details: 72 h
[10] = system: Vero E6; assay: as above; details: 72 h
[11] = system: Caco-2; assay: drug sensitivity score (DSS) for viability; higher = more toxic; extreme values may be limits of the assay; details: 72 h
[12] = system: Calu-3; assay: as above; details: 72 h
[13] = system: HepG2; assay: as above; details: 72 h
[14] = system: U2OS; assay: as above; details: 72 h
[15] = system: Vero E6; assay: as above; details: 72 h
[16] = system: A549-ACE2 infected with SARS-CoV-2; assay: cell count relative to DMSO; higher = less toxic; details: 24 h
[17] = system: A549-ACE2 infected with SARS-CoV-2; assay: SARS-CoV-2 infection rate relative to DMSO; higher = more infection; details: 24 h
[18] = system: A549-ACE2; assay: drug-induced phospholipidosis relative to tamoxifen; higher = more phospholipidosis
[19] = system: A549-ACE2 infected with SARS-CoV-2; assay: morphology score (similarity to uninfected cells); higher = more like uninfected cells; details: 24 h

CSCC1CN(/N=C/c2ccc([N+](=O)[O-])o2)C(=O)O1 (stereo not given) [inimur]
cell viability [%]
Details | [1] | [2] | [3] | [4] | [5]
1 nM | 90.6 | 89.9 | 100 | 98.2 | 96.6
10 nM | 97.7 | 97.4 | 93.8 | 101 | 96.4
100 nM | 92.7 | 96.8 | 96.5 | 95.8 | 89.7
1000 nM | 94.5 | 104 | 94.3 | 101 | 89
10000 nM | 89.4 | 101 | 93 | 105 | 95

Details | drug sensitivity score | relative viability EC50 [µM]
[6] | – | > 10
[7] | – | > 10
[8] | – | > 10
[9] | – | > 10
[10] | – | > 10
[11] | 0 | –
[12] | 0 | –
[13] | 0 | –
[14] | 0 | –
[15] | 0 | –

CCCCC1(COC(=O)CCC(=O)O)C(=O)N(c2ccccc2)N(c2ccccc2)C1=O [suxibuzone]
cell viability [%]
Details | [1] | [2] | [3] | [4] | [5]
1 nM | 87.1 | 104 | 122 | 96.4 | 110
10 nM | 104 | 101 | 99.5 | 101 | 103
100 nM | 94 | 95.2 | 102 | 96.5 | 103
1000 nM | 91.8 | 99.2 | 103 | 102 | 92.4
10000 nM | 84.1 | 95.6 | 94.6 | 95.5 | 102

Details | drug sensitivity score | relative viability EC50 [µM]
[6] | – | > 10
[7] | – | > 10
[8] | – | > 10
[9] | – | > 10
[10] | – | > 10
[11] | 0.2 | –
[12] | 0 | –
[13] | 0 | –
[14] | 0 | –
[15] | 0 | –

N=C(N)c1cc2ccc(OC(=O)c3cccs3)cc2s1 [BCX-1470]
Details | SARS-CoV-2 infection rate, [17] [%] | cell count, [16] [%] | cell viability, [1] [%] | cell viability, [3] [%] | cell viability, [4] [%] | cell viability, [5] [%] | morphology score, [19]
1 nM | – | – | 97.9 | 112 | 100 | 97 | –
10 nM | – | – | 96.1 | 100 | 100 | 95.2 | –
100 nM | – | – | 95.5 | 104 | 98.4 | 92.8 | –
0.3 µM | 97 | 102 | – | – | – | – | 0.05
1000 nM | – | – | 96.5 | 102 | 95.9 | 98.2 | –
3 µM | 99 | 99 | – | – | – | – | -0.11
10 µM | 54 | 95 | – | – | – | – | 0.59
10000 nM | – | – | 107 | 13.1 | 101 | 96.2 | –
30 µM | 22 | 52 | – | – | – | – | 0.39

drug-induced phospholipidosis [%], [18]
Details | 0.3 µM | 0.833333 µM | 3.33333 µM | 6.66667 µM | 10 µM
24 h | 1.95 | 3.92 | 0.54 | 7.05 | 10.8
48 h | 1.86 | -0.27 | -2.94 | 10.7 | 17.1
72 h | 0.245 | -2.66 | -0.938 | 1.04 | 8.25

Details | drug sensitivity score | relative viability EC50 [µM]
[6] | – | > 10
[8] | – | 3.32
[9] | – | > 10
[10] | – | > 10
[11] | 0 | –
[13] | 4.6 | –
[14] | 0 | –
[15] | 0 | –

c1ccc2c(c1)Sc1ccccc1N2C[C@H]1CN2CCC1CC2 [levomequitazine]
cell viability [%]
Details | [1] | [2] | [3] | [4] | [5]
1 nM | 99.6 | 105 | 104 | 97.6 | 115
10 nM | 106 | 104 | 97.7 | 102 | 98.2
100 nM | 106 | 102 | 97.9 | 97.8 | 99.3
1000 nM | 105 | 108 | 98.2 | 101 | 98.6
10000 nM | 82.6 | 86.3 | 86.9 | 90.4 | 93.5

Details | drug sensitivity score | relative viability EC50 [µM]
[6] | – | > 10
[7] | – | > 10
[8] | – | > 10
[9] | – | > 10
[10] | – | > 10
[11] | 0.3 | –
[12] | 0 | –
[13] | 0.2 | –
[14] | 0 | –
[15] | 0 | –

[O-][n+]1ccccc1[S-].[O-][n+]1ccccc1[S-].[Zn+2] [pyrithione-zinc]
Details | SARS-CoV-2 infection rate, [17] [%] | cell count, [16] [%] | cell viability, [1] [%] | cell viability, [2] [%] | cell viability, [3] [%] | cell viability, [4] [%] | cell viability, [5] [%] | morphology score, [19]
1 nM | – | – | 91.4 | 102 | 97 | 102 | 98.8 | –
10 nM | – | – | 94.5 | 94.8 | 111 | 95.1 | 93.6 | –
100 nM | – | – | 69.8 | 94.6 | 102 | 97 | 94.4 | –
0.3 µM | 95 | 99 | – | – | – | – | – | 0.13
1000 nM | – | – | 13.4 | 40.6 | 24.6 | 10.8 | 40 | –
3 µM | 76 | 4 | – | – | – | – | – | 0.14
10000 nM | – | – | 22.9 | 18.8 | -0.1 | 1.3 | 0.1 | –

drug-induced phospholipidosis [%], [18]
Details | 24 h | 48 h | 72 h
0.3 µM | -3.98 | -0.06 | 2.15
0.833333 µM | 2.2 | – | –

Details | drug sensitivity score | relative viability EC50 [µM]
[6] | – | 0.137
[7] | – | 0.527
[8] | – | 0.64
[9] | – | 0.406
[10] | – | 0.748
[11] | 19.5 | –
[12] | 12 | –
[13] | 14.1 | –
[14] | 16.4 | –
[15] | 12.8 | –

COC(=O)C(Cc1ccc(OCCn2c(=O)sc3cc(C(=O)c4ccccc4)ccc32)cc1)C(=O)OC
cell viability [%]
Details | [1] | [2] | [3] | [4] | [5]
1 nM | 100 | 94.4 | 95.5 | 100 | 93.7
10 nM | 93 | 109 | 101 | 95.1 | 96.7
100 nM | 101 | 97.7 | 98.7 | 95.6 | 89.2
1000 nM | 109 | 104 | 95.1 | 106 | 81.6
10000 nM | 101 | 118 | 102 | 105 | 85.5

Details | drug sensitivity score | relative viability EC50 [µM]
[6] | – | > 10
[7] | – | > 10
[8] | – | > 10
[9] | – | > 10
[10] | – | > 10
[11] | 0 | –
[12] | 0 | –
[13] | 0 | –
[14] | 0 | –
[15] | 2.1 | –
